Values after ≈ are worked out from the molar mass of the structure shown. Where a SMILES comes first, the peptide text is derived from it. Bridges are numbered along the chain shown (N, C = ends). [ ]: non-standard residue; d: D form. Nle = CCCC[C@H](N)C(=O)O
Tests used:
[1] = system: platelets (platelet-rich plasma); assay: ADP-induced platelet aggregation in citrated platelet-rich plasma (low Ca2+); assay type: cell-based; details: human PRP, 10 μM ADP; for IC50, platelet aggregation in citrated plasma: citrated plasma (about 0.18 mM free Ca2+), 37° C.
Source text: (§1) This example provides platelet aggregation studies for various peptides of the present invention. The studies compare the effect of the peptide on aggregation in both citrated and heparinized plasma. Because citrate is a chelating agent for calcium ions, the citrated plasma has a low calcium concentration as is characteristic of a clot site. In contrast, heparinized plasma has a calcium concentration similar to that of physiological conditions elsewhere in the blood stream.
(§2) Whole blood was drawn by a licensed phlebotomist from the antecubital vein using a 21 gauge butterfly infusion set and syringe from normal human volunteers. Platelet-rich plasma (PRP) was prepared by centrifuging heparinized (20 Units lithium porcine mucosa heparin/ml whole blood) or citrated (0.38% sodium citrate) whole blood for 12 min. at 200 relative centrifugal force (RCF). Platelet-poor plasma (PPP) is prepared by centrifuging PRP at 750 RCF for 12 min. and collecting the supernatant. Blood cell counts were performed using a Serano Baker automated cell counter. PRP platelet counts were adjusted to 200,000/μl by dilution with PPP. Final plasma free Ca+^2 concentrations were approximately 0.18 mM for citrated plasma and 2.3 mM for heparinized plasma. Platelet aggregation was determined spectrophotometrically utilizing a four channel aggregometer (Chrono-Log 570) by measuring the increase of light transmission through a stirred suspension of PRP maintained at 37° C. Dilutions of the peptides were added to the suspensions and aggregation induced with 10 μM adenosine diphosphate (ADP). Values were expressed as percentage of aggregation in the absence of peptides. This represents the percentage of light transmission standardized to PRP and PPP samples yielding 0% and 100% light transmission respectively.
(§3) Peptide anti-aggregation potencies were determined from dose-responsive curves for the inhibition of the maximum aggregation responses stimulated by high doses of ADP (10 μm). The 50% inhibitory concentration of each peptide (IC50) was determined by regression analysis of these curves.

GP-IIb/IIIa = biological target: T1, GP-IIb/IIIa (Homo sapiens, UniProt P05106+P08514); assay: Platelet aggregation in citrated (low Ca2+) versus heparinized (physiological Ca2+) plasma: apparent affinity for GP-IIb/IIIa; assay type: cell-based; details: 10 μM ADP; for increase (separation) in apparent affinity for GP-IIb/IIIa in low calcium concentration as compared to physiological calcium concentration: citrated plasma (about 0.18 mM Ca2+) vs heparinized plasma (2.3 mM Ca2+); for difference in apparent binding affinity for GP-IIb/IIIa at low (citrate) versus higher (heparin) calcium concentration, in words: citrated vs heparinized plasma
T1 construct: Platelet-rich plasma (PRP) was prepared by centrifuging heparinized; endogenous in cells; host or cells: human platelets in platelet-rich plasma (citrated or heparinized) from normal volunteers
T1 sequence (P08514 32-887 limits assumed): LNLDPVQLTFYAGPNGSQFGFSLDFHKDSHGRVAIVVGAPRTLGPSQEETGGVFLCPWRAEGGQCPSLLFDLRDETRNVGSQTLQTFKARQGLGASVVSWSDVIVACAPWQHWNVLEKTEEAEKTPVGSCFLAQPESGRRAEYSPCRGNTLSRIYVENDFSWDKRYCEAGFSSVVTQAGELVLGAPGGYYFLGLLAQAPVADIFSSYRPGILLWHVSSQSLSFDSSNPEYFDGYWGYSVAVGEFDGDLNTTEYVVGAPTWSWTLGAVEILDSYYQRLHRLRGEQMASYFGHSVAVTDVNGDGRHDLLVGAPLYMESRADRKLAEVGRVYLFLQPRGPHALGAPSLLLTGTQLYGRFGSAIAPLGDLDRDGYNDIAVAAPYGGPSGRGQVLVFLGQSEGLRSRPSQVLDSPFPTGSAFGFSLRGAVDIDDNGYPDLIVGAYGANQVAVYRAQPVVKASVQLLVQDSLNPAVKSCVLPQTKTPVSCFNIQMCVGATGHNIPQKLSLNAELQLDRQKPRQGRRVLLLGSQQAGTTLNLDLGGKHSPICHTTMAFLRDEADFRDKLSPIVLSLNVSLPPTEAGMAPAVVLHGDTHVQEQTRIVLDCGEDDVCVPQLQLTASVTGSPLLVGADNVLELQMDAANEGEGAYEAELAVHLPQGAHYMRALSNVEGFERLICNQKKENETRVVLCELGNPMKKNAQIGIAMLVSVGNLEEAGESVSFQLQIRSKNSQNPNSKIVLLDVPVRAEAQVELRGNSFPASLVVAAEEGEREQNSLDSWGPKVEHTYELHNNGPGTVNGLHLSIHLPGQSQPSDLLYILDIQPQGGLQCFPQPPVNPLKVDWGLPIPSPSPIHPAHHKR
T1 sequence (P08514 891-1039 partner limits assumed): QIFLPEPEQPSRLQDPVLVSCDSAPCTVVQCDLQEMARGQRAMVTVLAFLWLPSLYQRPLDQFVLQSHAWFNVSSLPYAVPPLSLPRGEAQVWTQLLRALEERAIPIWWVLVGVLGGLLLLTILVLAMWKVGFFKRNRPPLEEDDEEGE
T1 sequence (P05106 27-788): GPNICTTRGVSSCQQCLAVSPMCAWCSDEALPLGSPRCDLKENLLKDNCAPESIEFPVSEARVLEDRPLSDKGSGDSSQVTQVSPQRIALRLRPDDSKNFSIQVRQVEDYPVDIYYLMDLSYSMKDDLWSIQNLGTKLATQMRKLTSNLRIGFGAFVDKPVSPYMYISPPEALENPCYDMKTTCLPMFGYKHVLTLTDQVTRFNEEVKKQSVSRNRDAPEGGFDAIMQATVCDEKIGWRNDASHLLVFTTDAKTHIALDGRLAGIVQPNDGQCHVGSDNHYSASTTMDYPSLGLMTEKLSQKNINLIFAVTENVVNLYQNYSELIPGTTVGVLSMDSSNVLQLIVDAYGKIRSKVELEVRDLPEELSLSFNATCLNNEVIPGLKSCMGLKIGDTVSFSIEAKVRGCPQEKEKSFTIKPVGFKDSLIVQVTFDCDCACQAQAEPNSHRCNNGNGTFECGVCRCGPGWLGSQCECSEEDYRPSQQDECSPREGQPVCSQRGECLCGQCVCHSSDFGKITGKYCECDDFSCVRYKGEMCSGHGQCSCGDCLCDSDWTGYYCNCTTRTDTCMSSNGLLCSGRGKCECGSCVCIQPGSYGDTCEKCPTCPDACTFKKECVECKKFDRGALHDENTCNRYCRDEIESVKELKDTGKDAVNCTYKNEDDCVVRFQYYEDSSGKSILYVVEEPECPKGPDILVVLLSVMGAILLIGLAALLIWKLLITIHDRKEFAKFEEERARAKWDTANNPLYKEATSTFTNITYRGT
Source text: as §1, §2, §3

Structure (SMILES)	IC50, platelet aggregation in citrated plasma [1]	increase (separation) in apparent affinity for GP-IIb/IIIa in low calcium concentration as compared to physiological calcium concentration (GP-IIb/IIIa)	difference in apparent binding affinity for GP-IIb/IIIa at low (citrate) versus higher (heparin) calcium concentration, in words (GP-IIb/IIIa)	inhibitory activity on platelet aggregation stimulated with ADP, in words [1]
COc1ccc(C[C@@H]2NC(=O)[C@H](CC(=O)O)NC(=O)CNC(=O)[C@H](CCCNC(=N)N)NC(=O)[C@@H]3CCCN3C(=O)[C@H](CC(N)=O)NC(=O)[C@@H](NC(C)=O)CSSC[C@@H](C(N)=O)NC(=O)[C@H](CCCNC(=N)N)NC2=O)cc1 [SEQ ID NO. 8, Ac-CNPRGD(Y-OMe)RC-NH2]	0.2 µg/mL (≈ 0.176 µM)	12 fold	–	–
COc1ccc(C[C@@H]2NC(=O)[C@H](CC(=O)O)NC(=O)CNC(=O)[C@H](C)NC(=O)[C@@H]3CCCN3C(=O)[C@H](CC(N)=O)NC(=O)[C@@H](NC(C)=O)CSSC[C@@H](C(N)=O)NC(=O)[C@H](CCCNC(=N)N)NC2=O)cc1 [SEQ ID NO. 2, Ac-CNPAGD(Y-OMe)RC-NH2] (Ac-CNPAGDY(Me)RC-NH2; disulfide 1-9)	309 µg/mL (≈ 294 µM)	–	a separation between the apparent binding affinity	–
CCCC[C@@H]1NC(=O)[C@@H]2CCCN2C(=O)[C@H](CC(N)=O)NC(=O)[C@@H](NC(C)=O)CSSC[C@@H](C(N)=O)NC(=O)[C@H](CCCNC(=N)N)NC(=O)[C@H](Cc2ccc(OC)cc2)NC(=O)[C@H](CC(=O)O)NC(=O)CNC1=O [SEQ ID NO. 3, Ac-CNP(Nle)GD(Y-OMe)RC-NH2] (Ac-CNP[Nle]GDY(Me)RC-NH2; disulfide 1-9)	43 µg/mL (≈ 39.3 µM)	20 fold	–	–
COc1ccc(C[C@H](NC(=O)[C@H](CC(=O)O)NC(=O)CNC(=O)[C@H](C)NC(=O)[C@@H]2CCCN2C(=O)[C@H](CC(N)=O)NC(=O)[C@H](CS)NC(C)=O)C(=O)N[C@@H](CCCNC(=N)N)C(=O)N[C@@H](CS)C(N)=O)cc1 [SEQ ID NO. 5, Ac-CNPAGD(Y-OMe)RC-NH2] (Ac-CNPAGDY(Me)RC-NH2)	> 370 µg/mL	–	no difference in their apparent affinity for GP-IIb/IIIa at low versus higher calcium concentration	little to no activity
CCCC[C@H](NC(=O)[C@@H]1CCCN1C(=O)[C@H](CC(N)=O)NC(=O)[C@H](CS)NC(C)=O)C(=O)NCC(=O)N[C@@H](CC(=O)O)C(=O)N[C@@H](Cc1ccc(OC)cc1)C(=O)N[C@@H](CCCNC(=N)N)C(=O)N[C@@H](CS)C(N)=O [SEQ ID NO. 6, Ac-CNP(Nle)GD(Y-OMe)RC-NH2] (Ac-CNP[Nle]GDY(Me)RC-NH2)	> 370 µg/mL	–	no difference in their apparent affinity for GP-IIb/IIIa at low versus higher calcium concentration	little to no activity

Reference: patent US5858972A, “Antithrombotic agents and methods of use” (La Jolla Cancer Research Foundation, priority 1996, dated 1999)
